In ChEMBL document CHEMBL4813957, “Antitubercular properties of thiazolidin-4-ones - A review” (Eur J Med Chem, 2021):
≈ marks a conversion by molar mass, not a printed value.

Experiments:
[1] = system: Mycobacterium tuberculosis; assay: Antimycobacterial activity against Mycobacterium bovis BCG assessed as inhibition of bacteria at 30 ug/ml by nitrate reductase assay; format: functional; details: variant bovis BCG
[2] = system: Mycobacterium tuberculosis; assay: Antimycobacterial activity against Mycobacterium bovis BCG; format: functional, organism-based; details: variant bovis BCG
[3] = system: Mycobacterium tuberculosis; assay: Antimycobacterial activity against Mycobacterium africanum measured up to 2 weeks; format: functional; details: variant africanum, 336 h, time weeks <=2
[4] = system: Mycobacterium tuberculosis; assay: Antimycobacterial activity Mycobacterium bovis BCG measured up to 2 weeks; format: functional; details: variant bovis BCG, 336 h, time weeks <=2

Cc1nc(-c2cnccn2)sc1C(=O)NN1C(=O)CSC1c1ccccc1 (centres undefined)
inhibition at 30 µg/mL [1]: 62%

O=C(O)CN1C(=O)/C(=C/c2ccc(Cl)cc2)SC1=S
IC50 [2]: 7.4 µg/mL (≈ 23.6 µM)

O=C(O)CCCCCC1NC(=O)CS1 (centres undefined)
MIC [3]: 0.2 µM (≈ 0.0435 µg/mL) | MIC [4]: 1.3 µM (≈ 0.282 µg/mL)
